Legend:
Type in all cases: in vivo
Amaranthus retroflexus [1] = assay: Test Example 5: herbicidal effect by foliage application, plastic box (symbol N); conditions: 320 g/ha, 3 weeks after application
Outline: (§1)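 Greenhouse foliar test: seedlings at 14 days, grown 25° C. to 30° C. in sterilized diluvial soil; compound applied as an aqueous dilution of an emulsion; response read 3 weeks after spraying.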

Alopecurus myosuroides = assay: Test Example 4: herbicidal effect by soil treatment (symbol J); conditions: application herbicide amount 320 g/ha
Outline: (§2)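 Seeds were sown in sterilized diluvial soil, covered with about 1.5 cm of soil, and the soil surface was sprayed with a water-diluted emulsion of the compound at a predetermined rate. Plants grew in a greenhouse at 25° C. to 30° C.; effects were scored visually 3 weeks after application.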

wheat = assay: Test Example 4: effect on crop by soil treatment (symbol e); conditions: application herbicide amount 320 g/ha
Outline: (§3)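 Sterilized diluvial soil, spot sowing, ~1.5 cm soil cover; greenhouse 25–30° C.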

Chenopodium album [2] = assay: Test Example 5: herbicidal effect by foliage application, plastic box (symbol O); conditions: 320 g/ha, 3 weeks after application
Outline: as §1

[3] = test system: Echinochloa crus-galli var. crus-galli; assay: Test Example 3: herbicidal effect by foliage application, Wagner pot (symbol H); conditions: application herbicide amount 320 g/ha; for H (Echinochloa crus-galli var. crus-galli) herbicidal effect grade: Table 24
Outline: (§4)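 The compound, formulated as an emulsion and diluted with water to a predetermined rate, is applied uniformly to leaves of two-week-old seedlings growing in submerged alluvial soil at 25–30 °C. Rice is included. Each plant is assessed 3 weeks later using defined criteria.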

Chenopodium album [4] = assay: Test Example 4: herbicidal effect by soil treatment (symbol O); conditions: application herbicide amount 320 g/ha
Outline: as §2

Setaria viridis = assay: Test Example 5: herbicidal effect by foliage application, plastic box (symbol G); conditions: 320 g/ha, 3 weeks after application
Outline: as §1

Lolium multiflorum Lam. = assay: Test Example 4: herbicidal effect by soil treatment (symbol K); conditions: application herbicide amount 320 g/ha
Outline: as §2

Abutilon theophrasti = assay: Test Example 5: herbicidal effect by foliage application, plastic box (symbol M); conditions: 320 g/ha, 3 weeks after application
Outline: as §1

[5] = test system: Echinochloa crus-galli var. crus-galli; assay: Test Example 4: herbicidal effect by soil treatment (symbol H); conditions: application herbicide amount 320 g/ha
Outline: as §2

Stellaria media = assay: Test Example 5: herbicidal effect by foliage application, plastic box (symbol P); conditions: 320 g/ha, 3 weeks after application
Outline: as §1

beet [6] = assay: Test Example 5: effect on crop by foliage application, plastic box (symbol f); conditions: 320 g/ha, 3 weeks after application
Outline: (§5)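 Plants were raised from seed in a greenhouse (25° C. to 30° C.) after sowing in a plastic box of sterilized diluvial soil.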

Scirpus juncoides = assay: Test Example 2: herbicidal activity, application during weed generation in submerged conditions (symbol B); conditions: Table 23; application herbicide amount 320 g/ha; grade 0-5 by criteria of Test Example 1
Outline: (§6)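 Treatment timing was the one- to two-leaf stage, with diluted emulsifiable compound dropped onto the paddy water (depth 4 cm) over alluvial soil. All three species grew from a mixed sowing in a 25° C. to 30° C. greenhouse. Injury was judged by eye 3 weeks on.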

Veronica persica = assay: Test Example 5: herbicidal effect by foliage application, plastic box (symbol R); conditions: 320 g/ha, 3 weeks after application
Outline: as §1

Amaranthus retroflexus [7] = assay: Test Example 4: herbicidal effect by soil treatment (symbol N); conditions: application herbicide amount 320 g/ha
Outline: as §2

beet [8] = assay: Test Example 4: effect on crop by soil treatment (symbol f); conditions: application herbicide amount 320 g/ha
Outline: as §3

Cyperus difformis = assay: Test Example 3: herbicidal effect by foliage application, Wagner pot (symbol E); conditions: application herbicide amount 320 g/ha; for E herbicidal effect grade: Table 24
Outline: as §4

[9] = test system: Echinochloa oryzacola Vasing.; assay: Test Example 2: herbicidal activity, application during weed generation in submerged conditions (symbol A); conditions: Table 23; application herbicide amount 320 g/ha; grade 0-5 by criteria of Test Example 1
Outline: as §6

soybean = assay: Test Example 4: effect on crop by soil treatment (symbol d); conditions: application herbicide amount 320 g/ha
Outline: as §3

rice plant = assay: Test Example 5: effect on crop by foliage application, plastic box (symbol b); conditions: 320 g/ha, 3 weeks after application
Outline: as §5

SMILES: CC(CC1CC(OC(=O)COc2ccccc2)=C(c2c(C)cc(-c3ccc(Cl)cc3)cc2C)C1=O)=NOCC(F)(F)F (mixture of isomers) [9-027]
- N: Amaranthus retroflexus, herbicidal effect grade (Amaranthus retroflexus [1]): 0 (Herbicidal ratio of 5% or lower (almost no effect))
- Herbicidal effect grade, J: Alopecurus myosuroides (Alopecurus myosuroides): 5 (Herbicidal ratio of 90% or more (almost completely withered))
- Effect on crop grade, e: wheat (wheat): 2 (Herbicidal ratio of 20% or higher and lower than 40%)
- O: Chenopodium album, herbicidal effect grade (Chenopodium album [2]): 2 (Herbicidal ratio of 20% or higher and lower than 40%)
- H (Echinochloa crus-galli var. crus-galli) herbicidal effect grade [3]: 5 (Herbicidal ratio of 90% or more (almost completely withered))
- Herbicidal effect grade, O: Chenopodium album (Chenopodium album [4]): 3 (Herbicidal ratio of 40% or higher and lower than 70%)
- G: Setaria viridis, herbicidal effect grade (Setaria viridis): 5 (Herbicidal ratio of 90% or more (almost completely withered))
- Herbicidal effect grade, K: Lolium multiflorum Lam. (Lolium multiflorum Lam.): 5 (Herbicidal ratio of 90% or more (almost completely withered))
- M: Abutilon theophrasti, herbicidal effect grade (Abutilon theophrasti): 0 (Herbicidal ratio of 5% or lower (almost no effect))
- Herbicidal effect grade, H: Echinochloa crus-galli var. crus-galli [5]: 5 (Herbicidal ratio of 90% or more (almost completely withered))
- P: Stellaria media, herbicidal effect grade (Stellaria media): 3 (Herbicidal ratio of 40% or higher and lower than 70%)
- f: beet, effect on crop grade (beet [6]): 0 (Herbicidal ratio of 5% or lower (almost no effect))
- Herbicidal effect grade, B: Scirpus juncoides (Scirpus juncoides): 0 (Herbicidal ratio of 5% or lower (almost no effect))
- R: Veronica persica, herbicidal effect grade (Veronica persica): 2 (Herbicidal ratio of 20% or higher and lower than 40%)
- Herbicidal effect grade, N: Amaranthus retroflexus (Amaranthus retroflexus [7]): 3 (Herbicidal ratio of 40% or higher and lower than 70%)
- Effect on crop grade, f: beet (beet [8]): 0 (Herbicidal ratio of 5% or lower (almost no effect))
- E herbicidal effect grade (Cyperus difformis): 5 (Herbicidal ratio of 90% or more (almost completely withered))
- Herbicidal effect grade, A: Echinochloa oryzacola Vasing. [9]: 3 (Herbicidal ratio of 40% or higher and lower than 70%)
- Effect on crop grade, d: soybean (soybean): 0 (Herbicidal ratio of 5% or lower (almost no effect))
- b: directly sowed rice plant, effect on crop grade (rice plant): 5 (Herbicidal ratio of 90% or more (almost completely withered))

SMILES: COC(=O)C(C(=O)C1CC1)C1CC(O)=C(c2c(C)cc(Br)cc2C)C1=O (mixture of isomers) [10-002]
- N: Amaranthus retroflexus, herbicidal effect grade (Amaranthus retroflexus [1]): 0 (Herbicidal ratio of 5% or lower (almost no effect))
- Herbicidal effect grade, J: Alopecurus myosuroides (Alopecurus myosuroides): 0 (Herbicidal ratio of 5% or lower (almost no effect))
- Effect on crop grade, e: wheat (wheat): 0 (Herbicidal ratio of 5% or lower (almost no effect))
- O: Chenopodium album, herbicidal effect grade (Chenopodium album [2]): 0 (Herbicidal ratio of 5% or lower (almost no effect))
- H (Echinochloa crus-galli var. crus-galli) herbicidal effect grade [3]: 5 (Herbicidal ratio of 90% or more (almost completely withered))
- Herbicidal effect grade, O: Chenopodium album (Chenopodium album [4]): 0 (Herbicidal ratio of 5% or lower (almost no effect))
- G: Setaria viridis, herbicidal effect grade (Setaria viridis): 5 (Herbicidal ratio of 90% or more (almost completely withered))
- Herbicidal effect grade, K: Lolium multiflorum Lam. (Lolium multiflorum Lam.): 4 (Herbicidal ratio of 70% or higher and lower than 90%)
- M: Abutilon theophrasti, herbicidal effect grade (Abutilon theophrasti): 0 (Herbicidal ratio of 5% or lower (almost no effect))
- Herbicidal effect grade, H: Echinochloa crus-galli var. crus-galli [5]: 4 (Herbicidal ratio of 70% or higher and lower than 90%)
- P: Stellaria media, herbicidal effect grade (Stellaria media): 0 (Herbicidal ratio of 5% or lower (almost no effect))
- f: beet, effect on crop grade (beet [6]): 0 (Herbicidal ratio of 5% or lower (almost no effect))
- Herbicidal effect grade, B: Scirpus juncoides (Scirpus juncoides): 0 (Herbicidal ratio of 5% or lower (almost no effect))
- R: Veronica persica, herbicidal effect grade (Veronica persica): 0 (Herbicidal ratio of 5% or lower (almost no effect))
- Herbicidal effect grade, N: Amaranthus retroflexus (Amaranthus retroflexus [7]): 0 (Herbicidal ratio of 5% or lower (almost no effect))
- Effect on crop grade, f: beet (beet [8]): 0 (Herbicidal ratio of 5% or lower (almost no effect))
- E herbicidal effect grade (Cyperus difformis): 3 (Herbicidal ratio of 40% or higher and lower than 70%)
- Herbicidal effect grade, A: Echinochloa oryzacola Vasing. [9]: 1 (Herbicidal ratio of 5% or higher and lower than 20%)
- Effect on crop grade, d: soybean (soybean): 0 (Herbicidal ratio of 5% or lower (almost no effect))
- b: directly sowed rice plant, effect on crop grade (rice plant): 4 (Herbicidal ratio of 70% or higher and lower than 90%)

SMILES: CON=C(C)CC1(C)CC(O)=C(c2c(C)cc(C)cc2C)C1=O (mixture of isomers) [11-002]
- N: Amaranthus retroflexus, herbicidal effect grade (Amaranthus retroflexus [1]): 0 (Herbicidal ratio of 5% or lower (almost no effect))
- Herbicidal effect grade, J: Alopecurus myosuroides (Alopecurus myosuroides): 3 (Herbicidal ratio of 40% or higher and lower than 70%)
- Effect on crop grade, e: wheat (wheat): 0 (Herbicidal ratio of 5% or lower (almost no effect))
- O: Chenopodium album, herbicidal effect grade (Chenopodium album [2]): 0 (Herbicidal ratio of 5% or lower (almost no effect))
- H (Echinochloa crus-galli var. crus-galli) herbicidal effect grade [3]: 5 (Herbicidal ratio of 90% or more (almost completely withered))
- Herbicidal effect grade, O: Chenopodium album (Chenopodium album [4]): 0 (Herbicidal ratio of 5% or lower (almost no effect))
- G: Setaria viridis, herbicidal effect grade (Setaria viridis): 4 (Herbicidal ratio of 70% or higher and lower than 90%)
- Herbicidal effect grade, K: Lolium multiflorum Lam. (Lolium multiflorum Lam.): 5 (Herbicidal ratio of 90% or more (almost completely withered))
- M: Abutilon theophrasti, herbicidal effect grade (Abutilon theophrasti): 0 (Herbicidal ratio of 5% or lower (almost no effect))
- Herbicidal effect grade, H: Echinochloa crus-galli var. crus-galli [5]: 3 (Herbicidal ratio of 40% or higher and lower than 70%)
- P: Stellaria media, herbicidal effect grade (Stellaria media): 0 (Herbicidal ratio of 5% or lower (almost no effect))
- f: beet, effect on crop grade (beet [6]): 0 (Herbicidal ratio of 5% or lower (almost no effect))
- Herbicidal effect grade, B: Scirpus juncoides (Scirpus juncoides): 0 (Herbicidal ratio of 5% or lower (almost no effect))
- R: Veronica persica, herbicidal effect grade (Veronica persica): 0 (Herbicidal ratio of 5% or lower (almost no effect))
- Herbicidal effect grade, N: Amaranthus retroflexus (Amaranthus retroflexus [7]): 0 (Herbicidal ratio of 5% or lower (almost no effect))
- Effect on crop grade, f: beet (beet [8]): 0 (Herbicidal ratio of 5% or lower (almost no effect))
- E herbicidal effect grade (Cyperus difformis): 4 (Herbicidal ratio of 70% or higher and lower than 90%)
- Herbicidal effect grade, A: Echinochloa oryzacola Vasing. [9]: 2 (Herbicidal ratio of 20% or higher and lower than 40%)
- Effect on crop grade, d: soybean (soybean): 0 (Herbicidal ratio of 5% or lower (almost no effect))
- b: directly sowed rice plant, effect on crop grade (rice plant): 5 (Herbicidal ratio of 90% or more (almost completely withered))

SMILES: CON=C(C)CC1CC(OC(=O)C(C)(C)C)=C(c2c(C)cc(C)cc2C)C1=O (stereo not shown) [1-004, 2-mesityl-4-{2-(methoxyimino)propyl}-3-oxocyclopent-1-en-1-yl pivalate]
- N: Amaranthus retroflexus, herbicidal effect grade (Amaranthus retroflexus [1]): 4 (Herbicidal ratio of 70% or higher and lower than 90%)
- J (Alopecurus myosuroides) herbicidal effect grade (Alopecurus myosuroides): 5 (Herbicidal ratio of 90% or more (almost completely withered))
- e (wheat) effect on crop grade (wheat): 3 (Herbicidal ratio of 40% or higher and lower than 70%)
- O: Chenopodium album, herbicidal effect grade (Chenopodium album [2]): 3 (Herbicidal ratio of 40% or higher and lower than 70%)
- herbicidal effect on H (Echinochloa crus-galli var. crus-galli), grade 0-5 [3]: 5 (Herbicidal ratio of 90% or more (almost completely withered))
- O (Chenopodium album) herbicidal effect grade (Chenopodium album [4]): 0 (Herbicidal ratio of 5% or lower (almost no effect))
- G: Setaria viridis, herbicidal effect grade (Setaria viridis): 5 (Herbicidal ratio of 90% or more (almost completely withered))
- K (Lolium multiflorum Lam.) herbicidal effect grade (Lolium multiflorum Lam.): 5 (Herbicidal ratio of 90% or more (almost completely withered))
- M: Abutilon theophrasti, herbicidal effect grade (Abutilon theophrasti): 4 (Herbicidal ratio of 70% or higher and lower than 90%)
- H (Echinochloa crus-galli var. crus-galli) herbicidal effect grade [5]: 5 (Herbicidal ratio of 90% or more (almost completely withered))
- f: beet, effect on crop grade (beet [6]): 3 (Herbicidal ratio of 40% or higher and lower than 70%)
- Herbicidal effect grade, B: Scirpus juncoides (Scirpus juncoides): 4 (Herbicidal ratio of 70% or higher and lower than 90%)
- R: Veronica persica, herbicidal effect grade (Veronica persica): 4 (Herbicidal ratio of 70% or higher and lower than 90%)
- N (Amaranthus retroflexus) herbicidal effect grade (Amaranthus retroflexus [7]): 5 (Herbicidal ratio of 90% or more (almost completely withered))
- f (beet) effect on crop grade (beet [8]): 4 (Herbicidal ratio of 70% or higher and lower than 90%)
- herbicidal effect on E, grade 0-5 (Cyperus difformis): 5 (Herbicidal ratio of 90% or more (almost completely withered))
- Herbicidal effect grade, A: Echinochloa oryzacola Vasing. [9]: 5 (Herbicidal ratio of 90% or more (almost completely withered))
- d (soybean) effect on crop grade (soybean): 3 (Herbicidal ratio of 40% or higher and lower than 70%)
- b: directly sowed rice plant, effect on crop grade (rice plant): 5 (Herbicidal ratio of 90% or more (almost completely withered))

From patent US11000033B2, “Ketone or oxime compound, and herbicide” (NISSAN CHEMICAL CORPORATION, priority 2014, dated 2021)
